Compound: C=CC(=O)N1CCC[C@@H](n2nc(-c3ccc(Oc4ccccc4)cc3)c3c(N)ncnc32)C1 [Ibrutinib] + Nc1ncn([C@H]2C[C@H](O)[C@@H](CO)O2)c(=O)n1 [Decitabine] (partner 2 µM)
Experiment: relative viability (nuclei count vs DMSO), 5 days (fraction); higher = more cells survive
In short: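 After 5 days of treatment, lung cancer cells in 1536-well plates were fixed and stained in a single step (final 0.05% Triton X-100, 1% formaldehyde, 1 ug/ml Hoechst) and their nuclei counted on 4× images. Treatment had been applied by pin tool the day after seeding as one drug alone or as a fixed anchor-drug dose with five library-drug doses (not always all listed) in √10 steps. Relative viability is the nuclei count of treated wells divided by that of vehicle wells, and values are medians of duplicate plates.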

Row | Cell Line | relative viability (first compound 0.005 µM) | relative viability (first compound 0.01581 µM) | relative viability (first compound 0.05 µM) | relative viability (first compound 0.1581 µM) | relative viability (first compound 0.5 µM)
1 | 201T | 0.827 | 0.842 | 0.881 | 0.83 | 0.799
2 | A549 | 0.249 | 0.243 | 0.311 | 0.225 | 0.186
3 | A-427 | 0.59 | 0.574 | 0.576 |  | 0.549
4 | ABC-1 | 0.973 | 0.929 |  |  | 1.19
5 | BEN | 0.454 | 0.817 | 0.687 | 0.521 | 0.646
6 | COR-L23 | 0.428 | 0.433 | 0.473 | 0.461 | 0.525
7 | COR-L 105 | 0.632 | 0.534 | 0.431 | 0.689 | 0.403
8 | ChaGo-K-1 | 0.503 | 0.484 | 0.544 | 0.524 | 0.54
9 | EKVX | 0.281 | 0.247 | 0.421 | 0.315 | 0.226
10 | EMC-BAC-2 | 0.91 | 0.962 |  |  | 0.994
11 | EPLC-272H |  | 0.318 | 0.327 | 0.381 | 0.275
12 | H3255 | 0.575 | 0.532 |  | 0.636 | 0.261
13 | HARA | 0.5 | 0.486 | 0.376 | 0.468 | 0.264
14 | HCC-15 | 0.711 | 0.57 | 0.661 | 0.581 | 0.662
15 | HCC-44 | 1 | 0.96 | 1 | 0.976 | 0.988
16 | HCC-78 |  | 0.824 | 0.677 | 0.543 | 0.702
17 | HCC-366 | 0.422 | 0.305 | 0.314 | 0.346 | 0.326
18 | HCC-827 | 0.275 | 0.345 | 0.262 | 0.287 | 0.195
19 | HOP-62 | 0.242 |  | 0.22 | 0.249 | 0.231
20 | LC-2-ad | 0.842 | 0.776 | 0.774 | 0.814 | 0.765
21 | LCLC-97TM1 | 0.251 | 0.226 | 0.236 | 0.205 | 0.208
22 | LCLC-103H | 0.685 | 0.705 | 0.754 | 0.759 | 0.725
23 | LK-2 | 0.19 | 0.244 | 0.261 | 0.217 | 0.251
24 | LOU-NH91 | 0.786 | 0.745 | 0.762 | 0.807 | 0.648

Row | Cell Line | relative viability (first compound 0.005 µM) | relative viability (first compound 0.01581 µM) | relative viability (first compound 0.05 µM) | relative viability (first compound 0.1581 µM) | relative viability (first compound 0.5 µM)
25 | LU99A | 0.857 | 0.796 | 0.947 | 0.937 | 0.874
26 | LXF-289 | 0.357 | 0.295 | 0.381 | 0.38 | 0.342
27 | NCI-H23 | 0.313 | 0.343 | 0.339 | 0.298 | 0.339
28 | NCI-H322M | 0.662 | 0.637 | 0.664 | 0.634 | 0.505
29 | NCI-H358 | 0.176 | 0.204 |  | 0.232 | 0.136
30 | NCI-H441 | 0.255 | 0.241 | 0.231 | 0.211 | 0.25
31 | NCI-H460 | 0.541 | 0.419 | 0.503 | 0.497 | 0.551
32 | NCI-H520 | 0.447 | 0.512 | 0.497 | 0.606 | 0.498
33 | NCI-H522 | 0.64 | 0.588 | 0.677 | 0.626 | 0.637
34 | NCI-H596 | 1.12 | 1.1 | 1.88 | 0.936 | 0.942
35 | NCI-H647 | 0.341 | 0.331 | 0.411 | 0.244 | 0.409
36 | NCI-H650 | 0.384 | 0.325 | 0.335 | 0.37 | 0.319
37 | NCI-H661 | 0.498 | 0.489 | 0.428 | 0.471 | 0.381
38 | NCI-H727 | 0.617 | 1.04 | 0.806 | 0.506 | 0.804
39 | NCI-H838 | 0.552 | 0.466 | 0.497 | 0.476 | 0.451
40 | NCI-H1355 |  | 0.355 | 0.367 | 0.318 | 0.363
41 | NCI-H1395 | 0.777 | 0.688 | 0.811 | 0.697 | 0.75
42 | NCI-H1437 | 0.59 | 0.559 | 0.507 | 0.609 | 0.53
43 | NCI-H1648 | 0.509 | 0.434 | 0.518 | 0.433 | 0.364
44 | NCI-H1650 | 0.41 | 0.379 | 0.512 | 0.402 | 0.444
45 | NCI-H1651 | 0.426 | 0.693 | 0.56 | 0.465 | 0.53
46 | NCI-H1666 | 0.569 | 0.782 | 0.666 | 0.663 | 0.632
47 | NCI-H1734 | 0.548 | 0.511 | 0.541 | 0.455 | 0.47
48 | NCI-H1755 | 0.739 | 0.716 | 0.704 | 0.713 | 0.7

Row | Cell Line | relative viability (first compound 0.005 µM) | relative viability (first compound 0.01581 µM) | relative viability (first compound 0.05 µM) | relative viability (first compound 0.1581 µM) | relative viability (first compound 0.5 µM)
49 | NCI-H1792 |  | 0.584 | 0.558 | 0.591 | 0.441
50 | NCI-H1793 | 0.478 | 0.485 | 0.432 | 0.502 | 0.366
51 | NCI-H1915 | 0.269 | 0.272 | 0.275 | 0.272 | 0.255
52 | NCI-H1944 | 0.426 | 0.363 | 0.413 | 0.433 | 0.372
53 | NCI-H1975 | 0.414 | 0.354 | 0.379 | 0.373 | 0.177
54 | NCI-H1993 | 0.571 | 0.637 | 0.579 | 0.554 | 0.441
55 | NCI-H2009 | 0.375 | 0.373 | 0.372 | 0.46 | 0.415
56 | NCI-H2023 | 0.245 | 0.234 | 0.249 | 0.208 | 0.23
57 | NCI-H2085 | 0.57 | 0.56 | 0.588 |  | 0.568
58 | NCI-H2087 | 0.238 | 0.279 | 0.261 |  | 0.291
59 | NCI-H2126 | 0.537 | 0.565 | 0.613 | 0.598 | 0.502
60 | NCI-H2170 | 0.438 | 0.47 | 0.389 | 0.457 | 0.173
61 | NCI-H2342 | 0.739 | 0.64 | 0.693 | 0.708 | 0.563
62 | NCI-H2347 | 0.65 | 0.609 | 0.658 | 0.575 | 0.535
63 | NCI-H2405 | 0.622 | 0.715 |  |  | 0.682
64 | NCI-H3122 | 0.52 | 0.381 | 0.471 | 0.424 | 0.431
65 | PC-3 [JPC-3] | 0.707 | 0.762 | 0.707 | 0.837 | 0.542
66 | PC-14 | 0.241 | 0.202 | 0.217 | 0.168 | 0.22
67 | RERF-LC-KJ | 0.599 | 0.654 | 0.561 | 0.693 | 0.728
68 | SK-LU-1 | 0.592 | 0.664 | 0.626 | 0.571 | 0.617
69 | SW 900 | 0.401 | 0.509 | 0.412 | 0.432 | 0.458
70 | SW 1573 | 0.364 | 0.459 | 0.482 | 0.412 | 0.683
71 | UMC-11 |  | 0.588 | 0.452 | 0.596 | 0.789

— the supplement of paper PMC10307832
